Activity calls are given as the source filed them.
Columns and labels:
[1] = target: T1, Endoribonuclease toxin MazF (Escherichia coli K-12, UniProt P0AE70); test: substrate-only fluorescence increase artefacts – biochemical, single-stranded RNase substrate, counter-screen for MazEF activator project, dose response (AID 588502); type: functional
T1 sequence (P0AE70 whole entry): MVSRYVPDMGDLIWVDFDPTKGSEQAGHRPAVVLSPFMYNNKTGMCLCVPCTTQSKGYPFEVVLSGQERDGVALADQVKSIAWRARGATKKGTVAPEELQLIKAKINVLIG

[2] = target: Albumin (Bos taurus, UniProt P02769); test: Counterscreen for inhibitors of T-cell receptor (TCR)-CD3 interaction: Fluorescence-based biochemical high throughput dose response assay to identify inhibitors of T-cell receptor (TCR)-CD3 interaction using a TAMRA-labeled BSA probe.; type: functional
[3] = target: T1, Endoribonuclease toxin MazF; test: activation of MazEF endoribonuclease cleavage – biochemical, fluorescence, single-stranded RNA substrate, uHTS hits, dose response (AID 588481); type: functional
[4] = target: Beta-galactosidase (Escherichia coli, UniProt Q8VNN2); test: Dose response counterscreen for EBI2 assay utilizing the enzyme, b-galactosidase.; type: functional
[5] = target: T2, Probable nicotinate-nucleotide adenylyltransferase (Staphylococcus aureus (strain N315), UniProt P65502); type: functional, Staphylococcus aureus subsp. aureus N315;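 for IC50 Mean: confirmatory dose-response retesting of NadD inhibitor hits first found in an ultra-high-throughput screen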
[6] = target: Paired box protein Pax-8 (Homo sapiens, UniProt Q06710); test: PAX8 transcriptional activity inhibition in RMG-I – RMG-I cells, luciferase, cherry-pick, dose response (AID 687027); type: functional, cell-based;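 note: luciferase reporter driven by Pax8 target thyroperoxidase promoter measured by SteadyGlo luminescence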
[7] = target: T2, Probable nicotinate-nucleotide adenylyltransferase; type: functional, Staphylococcus aureus subsp. aureus N315; details: read-out: IC50_Mean
[8] = target: T3, Methionyl-tRNA synthetase, putative (Trypanosoma brucei brucei, UniProt Q38C91); type: functional, Trypanosoma brucei brucei strain 927/4 GUTat10.1
[9] = target: T4, Heat shock factor protein 1 (Mus musculus, UniProt P38532); test: decrease of HSF1-responsive luciferase luminescence – cell-based, NIH3T3, dose retest, confirmation (AID 2382); type: functional;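 note: NIH3T3 fibroblasts with HSF1-driven luciferase reporter stressed by proteasome inhibitor MG132; luminescence from HSF1-driven luciferase expression after 8 hours of MG132 stress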
T4 sequence (P38532 whole entry): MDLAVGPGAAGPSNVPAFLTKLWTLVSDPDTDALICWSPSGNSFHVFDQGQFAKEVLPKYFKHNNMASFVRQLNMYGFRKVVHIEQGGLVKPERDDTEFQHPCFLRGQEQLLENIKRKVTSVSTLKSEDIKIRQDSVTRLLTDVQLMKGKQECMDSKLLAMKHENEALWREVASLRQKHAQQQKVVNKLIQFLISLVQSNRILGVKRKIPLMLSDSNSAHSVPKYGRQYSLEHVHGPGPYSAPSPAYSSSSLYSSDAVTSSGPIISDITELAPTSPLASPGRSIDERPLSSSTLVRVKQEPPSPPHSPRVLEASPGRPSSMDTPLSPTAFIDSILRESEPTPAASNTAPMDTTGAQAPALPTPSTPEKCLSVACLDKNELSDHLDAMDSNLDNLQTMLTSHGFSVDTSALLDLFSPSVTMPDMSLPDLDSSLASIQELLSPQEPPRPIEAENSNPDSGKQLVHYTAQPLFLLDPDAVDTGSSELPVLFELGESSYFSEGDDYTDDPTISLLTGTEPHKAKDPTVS

[10] = target: T3, Methionyl-tRNA synthetase, putative; type: functional, Trypanosoma brucei brucei strain 927/4 GUTat10.1; remark: listed apart in the source
[11] = target: T5, Rac GTPase-activating protein 1 (Homo sapiens, UniProt Q9H0H5); test: blockers of MgcRacGAP-driven Rac1 GTP hydrolysis – biochemical, ADP Hunter fluorescence, primary and confirmatory, confirmation (AID 624330); type: functional
T5 sequence (Q9H0H5 whole entry): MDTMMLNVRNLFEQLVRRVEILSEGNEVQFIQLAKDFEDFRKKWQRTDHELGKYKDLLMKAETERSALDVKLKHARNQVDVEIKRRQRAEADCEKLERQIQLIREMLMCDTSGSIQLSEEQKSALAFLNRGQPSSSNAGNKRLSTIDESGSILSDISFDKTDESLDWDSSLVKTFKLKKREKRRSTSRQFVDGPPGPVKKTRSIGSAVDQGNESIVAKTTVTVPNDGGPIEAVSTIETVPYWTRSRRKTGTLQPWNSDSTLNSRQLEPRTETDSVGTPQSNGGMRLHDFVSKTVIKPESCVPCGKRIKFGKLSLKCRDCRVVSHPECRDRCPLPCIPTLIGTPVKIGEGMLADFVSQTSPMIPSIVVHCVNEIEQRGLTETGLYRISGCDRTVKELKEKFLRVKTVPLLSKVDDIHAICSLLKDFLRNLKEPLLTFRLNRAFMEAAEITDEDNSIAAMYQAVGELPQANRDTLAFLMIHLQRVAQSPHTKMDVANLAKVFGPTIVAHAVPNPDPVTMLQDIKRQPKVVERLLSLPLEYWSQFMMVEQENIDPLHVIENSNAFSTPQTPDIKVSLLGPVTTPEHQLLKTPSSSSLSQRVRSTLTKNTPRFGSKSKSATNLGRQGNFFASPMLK

[12] = system: BJ; test: BJ-TERT-LT-ST fibroblast viability loss – cell-based, RAS-independent, luminescence, dose response (AID 1935); type: functional; details: Homo sapiens;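 note: BJ fibroblasts immortalized with TERT plus LT and ST oncogenes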
[13] = general cell-killing toxicity readout – plate reader, dry powder samples, cytotoxicity control for PAX8 inhibitor project, dose response (AID 743021); type: functional, cell-based
[14] = system: BJ; test: cells; type: functional, cell-based; details: Homo sapiens
[15] = viability loss in HeLa cells – cytotoxicity control for MgcRacGAP inhibitor project, dose response (AID 624300); type: functional
[16] = DRD fibroblast viability loss – cell-based, non-viral oncogenic, luminescence, dose response (AID 1934); type: functional; details: Homo sapiens
[17] = system: BJ; test: BJ-TERT fibroblast viability loss – cell-based, RAS-independent, luminescence, dose response (AID 1933); type: functional; details: Homo sapiens
[18] = target: T6, DNA repair protein RAD52 homolog (Homo sapiens, UniProt P43351); type: functional, biochemical
T6 sequence (P43351 whole entry): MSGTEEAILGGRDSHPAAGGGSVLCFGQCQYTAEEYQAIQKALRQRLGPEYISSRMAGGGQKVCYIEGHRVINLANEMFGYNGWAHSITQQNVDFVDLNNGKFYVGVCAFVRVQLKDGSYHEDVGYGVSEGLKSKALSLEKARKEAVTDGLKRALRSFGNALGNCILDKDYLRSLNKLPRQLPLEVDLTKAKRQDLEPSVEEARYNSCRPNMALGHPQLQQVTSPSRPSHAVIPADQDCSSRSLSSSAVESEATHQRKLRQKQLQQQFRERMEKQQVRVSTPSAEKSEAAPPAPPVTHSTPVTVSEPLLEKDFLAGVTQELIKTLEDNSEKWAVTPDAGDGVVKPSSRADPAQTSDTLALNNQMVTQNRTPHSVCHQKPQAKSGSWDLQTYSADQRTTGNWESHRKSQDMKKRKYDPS

[19] = system: INS1; test: INS-1E survival protection against cytokine death – cell-based, luminescence, retest, dose response (AID 449756); type: functional; details: Rattus norvegicus;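 note: cell death triggered by IL-1 beta plus TNF-alpha plus IFN-gamma mixture; protective hits raise ATP signal compared with cytokine alone wells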
[20] = target: Neurotensin receptor type 1 (Homo sapiens, UniProt P30989); type: functional;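 note: Image-based confirmatory dose-response assay measuring agonist activity at NTR1; NTR1-expressing U2OS osteosarcoma cells imaged for beta-arrestin GFP spot formation; agonist potency where compounds increase beta-arrestin recruitment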
[21] = NIH3T3 cell viability loss – ATP luminescence, mouse fibroblasts, counter-screen, dose response (AID 2010); type: functional, cell-based;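 note: cells exposed to compound for about 90 hours before reading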
[22] = Trypanosoma cruzi growth suppression in host cells – NIH3T3 host cells, beta-gal luminescence, confirmation (AID 2044); type: functional, cell-based;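 note: intracellular parasites grown in NIH/3T3 mouse fibroblasts as host cells; luminescent beta-galactosidase reporter signal from transgenic T. cruzi replicating inside host cells; inhibitors lower the luminescence signal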
[23] = target: Long-chain-fatty-acid--AMP ligase FadD28 (Mycobacterium tuberculosis, UniProt P9WQ59); test: Fluorescence polarization aasay to screen for inhibitors that compete for the binding of FadD28 to a bisubstrate Measured in Biochemical System Using Plate Reader - 2147-01_Inhibitor_Dose_CherryPick_Activity.; type: functional, Mycobacterium tuberculosis H37Rv
[24] = target: Nonstructural protein 1 (Influenza A virus, UniProt Q194T2); type: functional, Influenza A virus (A/California/07/2009(H1N1))
[25] = target: T7, Aminopeptidase N (Plasmodium falciparum FcB1/Columbia, UniProt O96935); test: malaria alanyl aminopeptidase activity blockers – biochemical, fluorogenic H-Leu-NHMec substrate, 1536-well (AID 1445); parameters: species or system Plasmodium falciparum 3D7, 3D7
T7 sequence (O96935 whole entry): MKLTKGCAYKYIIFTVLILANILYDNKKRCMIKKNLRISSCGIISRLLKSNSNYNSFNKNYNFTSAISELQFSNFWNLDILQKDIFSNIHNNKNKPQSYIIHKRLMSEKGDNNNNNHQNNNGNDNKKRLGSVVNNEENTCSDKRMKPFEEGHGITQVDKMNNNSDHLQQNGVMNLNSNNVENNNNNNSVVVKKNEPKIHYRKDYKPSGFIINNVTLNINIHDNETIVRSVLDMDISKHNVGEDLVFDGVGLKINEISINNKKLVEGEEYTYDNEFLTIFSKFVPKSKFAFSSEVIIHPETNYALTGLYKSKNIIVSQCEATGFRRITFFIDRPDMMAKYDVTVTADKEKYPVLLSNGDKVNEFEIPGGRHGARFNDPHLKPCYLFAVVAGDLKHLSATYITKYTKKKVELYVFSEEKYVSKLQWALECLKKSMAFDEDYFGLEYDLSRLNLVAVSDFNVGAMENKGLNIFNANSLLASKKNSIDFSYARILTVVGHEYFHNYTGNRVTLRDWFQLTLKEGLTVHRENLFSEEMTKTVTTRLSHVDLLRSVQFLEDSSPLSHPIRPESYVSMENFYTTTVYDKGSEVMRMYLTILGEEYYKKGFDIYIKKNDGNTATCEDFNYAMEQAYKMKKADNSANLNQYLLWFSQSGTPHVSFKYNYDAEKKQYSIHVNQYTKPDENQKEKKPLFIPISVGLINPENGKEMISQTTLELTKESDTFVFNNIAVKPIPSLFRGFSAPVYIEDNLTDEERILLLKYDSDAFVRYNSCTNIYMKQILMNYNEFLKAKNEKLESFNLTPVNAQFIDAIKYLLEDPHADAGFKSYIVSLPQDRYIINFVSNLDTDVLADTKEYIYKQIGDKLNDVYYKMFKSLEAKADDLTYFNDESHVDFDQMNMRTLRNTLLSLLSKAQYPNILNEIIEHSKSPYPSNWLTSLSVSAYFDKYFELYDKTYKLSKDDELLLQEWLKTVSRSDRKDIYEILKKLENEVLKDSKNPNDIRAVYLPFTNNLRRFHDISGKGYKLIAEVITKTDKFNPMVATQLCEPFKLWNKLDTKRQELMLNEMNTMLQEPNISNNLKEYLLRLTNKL

T3 sequence (Q38C91 whole entry): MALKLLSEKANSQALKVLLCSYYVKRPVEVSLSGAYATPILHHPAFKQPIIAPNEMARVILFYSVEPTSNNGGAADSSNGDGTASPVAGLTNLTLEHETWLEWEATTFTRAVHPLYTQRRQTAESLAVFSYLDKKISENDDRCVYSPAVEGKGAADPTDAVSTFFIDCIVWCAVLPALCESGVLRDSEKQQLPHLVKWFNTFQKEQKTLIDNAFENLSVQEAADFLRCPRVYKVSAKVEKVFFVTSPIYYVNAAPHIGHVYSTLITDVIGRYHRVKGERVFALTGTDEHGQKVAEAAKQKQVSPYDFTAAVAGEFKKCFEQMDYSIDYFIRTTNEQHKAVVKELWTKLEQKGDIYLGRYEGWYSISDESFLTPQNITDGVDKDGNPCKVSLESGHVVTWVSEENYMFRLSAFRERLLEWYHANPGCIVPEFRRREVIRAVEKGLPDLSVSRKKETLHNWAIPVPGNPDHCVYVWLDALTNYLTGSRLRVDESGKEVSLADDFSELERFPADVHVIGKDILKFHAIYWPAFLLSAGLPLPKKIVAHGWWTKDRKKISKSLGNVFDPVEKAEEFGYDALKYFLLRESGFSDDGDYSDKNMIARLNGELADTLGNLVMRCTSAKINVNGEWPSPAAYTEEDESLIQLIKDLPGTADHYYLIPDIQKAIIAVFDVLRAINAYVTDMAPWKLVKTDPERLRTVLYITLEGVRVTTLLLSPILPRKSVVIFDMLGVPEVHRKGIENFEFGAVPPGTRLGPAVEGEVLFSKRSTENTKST
T2 sequence (P65502 whole entry): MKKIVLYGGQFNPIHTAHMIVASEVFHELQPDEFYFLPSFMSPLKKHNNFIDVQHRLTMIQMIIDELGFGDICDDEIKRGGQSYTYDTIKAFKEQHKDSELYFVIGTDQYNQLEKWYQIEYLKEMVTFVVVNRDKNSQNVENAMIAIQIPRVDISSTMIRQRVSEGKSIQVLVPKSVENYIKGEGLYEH
Paired box protein Pax-8, sequence (Q06710 whole entry): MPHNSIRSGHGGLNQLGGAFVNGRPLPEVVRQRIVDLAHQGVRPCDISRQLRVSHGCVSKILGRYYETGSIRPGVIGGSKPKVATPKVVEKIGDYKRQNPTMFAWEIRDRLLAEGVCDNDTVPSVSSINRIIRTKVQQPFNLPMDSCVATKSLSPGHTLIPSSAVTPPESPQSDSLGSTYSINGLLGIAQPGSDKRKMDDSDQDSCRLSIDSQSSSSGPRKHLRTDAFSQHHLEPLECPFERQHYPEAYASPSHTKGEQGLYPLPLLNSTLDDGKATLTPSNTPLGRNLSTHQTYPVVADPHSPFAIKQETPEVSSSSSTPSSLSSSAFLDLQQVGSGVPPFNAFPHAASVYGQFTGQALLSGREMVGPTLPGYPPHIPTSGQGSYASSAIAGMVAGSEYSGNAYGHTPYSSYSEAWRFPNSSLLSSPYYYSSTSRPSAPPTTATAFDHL
Albumin, sequence (P02769 whole entry): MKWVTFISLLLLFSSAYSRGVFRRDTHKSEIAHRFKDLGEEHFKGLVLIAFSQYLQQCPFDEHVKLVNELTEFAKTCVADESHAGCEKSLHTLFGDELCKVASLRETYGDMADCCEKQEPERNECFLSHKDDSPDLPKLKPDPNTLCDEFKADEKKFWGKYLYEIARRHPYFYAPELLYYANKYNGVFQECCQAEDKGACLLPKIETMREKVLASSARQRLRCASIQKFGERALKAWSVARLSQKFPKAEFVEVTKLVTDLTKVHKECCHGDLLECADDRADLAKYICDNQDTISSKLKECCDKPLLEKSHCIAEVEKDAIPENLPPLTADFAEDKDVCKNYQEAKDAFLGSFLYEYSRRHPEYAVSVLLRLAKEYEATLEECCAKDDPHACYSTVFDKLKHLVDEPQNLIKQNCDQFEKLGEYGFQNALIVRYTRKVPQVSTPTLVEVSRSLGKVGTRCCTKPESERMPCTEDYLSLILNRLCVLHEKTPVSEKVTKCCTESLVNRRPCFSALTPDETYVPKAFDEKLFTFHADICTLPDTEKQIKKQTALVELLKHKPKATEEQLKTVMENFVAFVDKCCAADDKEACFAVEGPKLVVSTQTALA
Beta-galactosidase, sequence (Q8VNN2 whole entry): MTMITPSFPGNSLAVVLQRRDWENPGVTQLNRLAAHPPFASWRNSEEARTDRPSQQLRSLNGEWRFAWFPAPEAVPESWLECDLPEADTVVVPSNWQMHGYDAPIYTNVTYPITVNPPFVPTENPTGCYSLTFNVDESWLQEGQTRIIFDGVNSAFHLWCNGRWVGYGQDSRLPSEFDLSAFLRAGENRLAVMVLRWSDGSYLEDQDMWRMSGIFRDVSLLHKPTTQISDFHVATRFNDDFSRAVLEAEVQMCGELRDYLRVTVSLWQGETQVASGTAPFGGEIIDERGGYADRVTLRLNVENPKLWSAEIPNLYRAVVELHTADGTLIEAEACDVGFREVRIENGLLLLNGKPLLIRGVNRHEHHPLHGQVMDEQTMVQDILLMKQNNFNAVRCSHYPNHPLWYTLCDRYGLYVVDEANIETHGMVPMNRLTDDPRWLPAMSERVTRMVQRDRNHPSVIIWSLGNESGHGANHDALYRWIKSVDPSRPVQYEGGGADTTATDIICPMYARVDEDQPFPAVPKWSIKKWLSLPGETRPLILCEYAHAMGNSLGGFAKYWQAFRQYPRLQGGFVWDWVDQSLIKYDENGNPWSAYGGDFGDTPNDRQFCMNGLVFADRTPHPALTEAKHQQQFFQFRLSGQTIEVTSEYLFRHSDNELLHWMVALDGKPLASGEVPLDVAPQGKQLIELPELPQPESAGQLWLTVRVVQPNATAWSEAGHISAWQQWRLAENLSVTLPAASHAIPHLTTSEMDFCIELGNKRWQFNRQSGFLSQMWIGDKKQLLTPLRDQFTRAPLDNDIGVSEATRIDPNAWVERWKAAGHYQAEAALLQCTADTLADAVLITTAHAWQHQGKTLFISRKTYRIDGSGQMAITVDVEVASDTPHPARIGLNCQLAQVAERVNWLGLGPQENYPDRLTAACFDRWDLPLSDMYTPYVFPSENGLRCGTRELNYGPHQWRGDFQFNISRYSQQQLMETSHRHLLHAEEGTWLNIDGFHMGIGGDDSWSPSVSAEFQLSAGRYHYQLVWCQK
Long-chain-fatty-acid--AMP ligase FadD28, sequence (P9WQ59 whole entry): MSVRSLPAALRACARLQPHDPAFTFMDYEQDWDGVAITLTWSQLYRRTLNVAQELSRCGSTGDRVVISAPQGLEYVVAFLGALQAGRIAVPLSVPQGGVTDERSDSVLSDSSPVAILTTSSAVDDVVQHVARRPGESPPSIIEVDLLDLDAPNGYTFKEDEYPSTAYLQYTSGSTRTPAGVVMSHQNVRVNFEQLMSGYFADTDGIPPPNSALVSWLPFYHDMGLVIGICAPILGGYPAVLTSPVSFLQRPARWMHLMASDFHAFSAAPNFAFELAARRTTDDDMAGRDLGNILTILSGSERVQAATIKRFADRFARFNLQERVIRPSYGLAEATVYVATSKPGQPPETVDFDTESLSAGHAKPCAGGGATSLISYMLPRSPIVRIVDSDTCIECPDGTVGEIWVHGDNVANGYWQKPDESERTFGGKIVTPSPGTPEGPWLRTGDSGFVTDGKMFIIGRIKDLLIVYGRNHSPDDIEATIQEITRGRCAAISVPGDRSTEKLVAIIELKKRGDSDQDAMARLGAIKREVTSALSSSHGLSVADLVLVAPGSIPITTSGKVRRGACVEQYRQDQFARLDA
Neurotensin receptor type 1, sequence (P30989 whole entry): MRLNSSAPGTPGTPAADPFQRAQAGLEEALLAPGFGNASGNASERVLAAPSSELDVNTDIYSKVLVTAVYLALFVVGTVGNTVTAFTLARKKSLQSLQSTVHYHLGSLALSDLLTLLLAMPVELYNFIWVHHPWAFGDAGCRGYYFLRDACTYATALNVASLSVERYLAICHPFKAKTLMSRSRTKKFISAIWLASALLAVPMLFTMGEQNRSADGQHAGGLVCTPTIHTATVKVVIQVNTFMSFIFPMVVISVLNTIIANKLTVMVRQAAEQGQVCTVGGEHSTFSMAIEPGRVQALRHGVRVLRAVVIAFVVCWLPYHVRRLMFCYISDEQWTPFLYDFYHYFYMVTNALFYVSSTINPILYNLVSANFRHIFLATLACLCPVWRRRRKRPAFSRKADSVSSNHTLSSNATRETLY
Nonstructural protein 1, sequence (Q194T2 whole entry): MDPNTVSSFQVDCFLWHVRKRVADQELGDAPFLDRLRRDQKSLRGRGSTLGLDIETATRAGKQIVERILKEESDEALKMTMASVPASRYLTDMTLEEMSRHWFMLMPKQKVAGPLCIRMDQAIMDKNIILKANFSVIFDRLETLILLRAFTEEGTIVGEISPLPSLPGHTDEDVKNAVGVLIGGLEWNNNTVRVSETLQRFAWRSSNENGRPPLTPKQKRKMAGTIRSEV

Structure (SMILES): COC(=O)CC1(C(=O)OC)Nc2cc(Cl)c(Cl)cc2S(=O)(=O)N1O (configuration not stated)
- EC50 [1]: > 99 µM (inactive)
- IC50 [2]: > 94.2 µM (inactive)
- EC50 [3]: 1.14 µM (active)

Structure (SMILES): CCOC(=O)C1CCN(C(=O)c2cc3c(s2)-c2ccccc2OC3)CC1
- IC50 [4]: > 80 µM (inactive)

Structure (SMILES): Oc1ccc(C[C@H]2CNC(=S)N2CC2CCCN2C[C@H](Cc2ccccc2)N2C[C@H](Cc3ccc(O)cc3)N(CCc3ccccc3)C2=S)cc1 (some centres not stated)
- IC50 [5]: 17 µM (active)
- AC50 [6]: 11.5 µM (active)
- IC50 [7]: 30.5 µM (active)

Structure (SMILES): COc1ccc(NC(=S)N2CCC(c3nc4ccc(Cl)cc4[nH]3)CC2)c(OC)c1
- IC50 [8]: 53.5 µM (inactive)
- EC50 [9]: > 195 µM (not active)
- IC50 [10]: 26.1 µM (inactive)

Structure (SMILES): CC(C)Nc1ccc(Nc2ccnc3cc4ccccc4cc23)cc1
- AC50 [6]: 7.04 µM (active)
- IC50 [11]: 20 µM (active)
- EC50 [12]: 5.35 µM (inconclusive)
- AC50 [13]: 51.2 µM (active)
- EC50 [14]: 9.05 µM (inconclusive)
- CC50 [15]: 17.2 µM (active)
- EC50 [16]: 4.73 µM (active)
- EC50 [17]: 3.71 µM (inconclusive)
- AC50 [18]: 0.782 µM (active)
- AC50 [19]: 3.15 µM (active)
- EC50 [20]: 12.2 µM (active)
- EC50 [21]: 6.48 µM (active)
- EC50 [22]: 0.632 µM (active)

Structure (SMILES): CCOc1ccc(N2C(=O)/C(=C\NNc3nnc(C)c(O)n3)c3ccccc3C2=O)cc1
- AC50 [23]: 64.9 µM (active)
- IC50 [24]: 5.02 µM (active)
- IC50 [25]: 20.9 µM (active)
- EC50 [9]: > 195 µM (not active)

Reference: ChEMBL document CHEMBL1201862, “PubChem BioAssay data set” (2004)
